How the values were obtained:
Test in all cases: cells
Type in all cases: cell-based
A549/ATCC = A549/ATCC (Non-Small Cell Lung Cancer), 10 μM, 48 hours
K-562 = K-562 (Leukemia), 10 μM, 48 hours
HCT-116 = HCT-116 (Colon Cancer), 10 μM, 48 hours
LOX IMVI = LOX IMVI (Melanoma), 10 μM, 48 hours
SR = SR (Leukemia), 10 μM, 48 hours
SK-OV-3 = SK-OV-3 (Ovarian Cancer), 10 μM, 48 hours
HCC-2998 = HCC-2998 (Colon Cancer), 10 μM, 48 hours
OVCAR-3 = OVCAR-3 (Ovarian Cancer), 10 μM, 48 hours
A498 = A498 (Renal Cancer), 10 μM, 48 hours
OVCAR-4 = OVCAR-4 (Ovarian Cancer), 10 μM, 48 hours
SNB-75 = SNB-75 (CNS Cancer), 10 μM, 48 hours
MDA-MB-231/ATCC = MDA-MB-231/ATCC (Breast Cancer), 10 μM, 48 hours
MDA-MB-435 = MDA-MB-435 (Melanoma), 10 μM, 48 hours
UACC-62 = UACC-62 (Melanoma), 10 μM, 48 hours
HL-60 (TB) = HL-60 (TB) (Leukemia), 10 μM, 48 hours
HS 578T = HS 578T (Breast Cancer), 10 μM, 48 hours
RPMI-8226 = RPMI-8226 (Leukemia), 10 μM, 48 hours
NCI-H23 = NCI-H23 (Non-Small Cell Lung Cancer), 10 μM, 48 hours
SK-MEL-28 = SK-MEL-28 (Melanoma), 10 μM, 48 hours
PC-3 = PC-3 (Prostate Cancer), 10 μM, 48 hours
BT-549 = BT-549 (Breast Cancer), 10 μM, 48 hours
NCI-H460 = NCI-H460 (Non-Small Cell Lung Cancer), 10 μM, 48 hours
TK-10 = TK-10 (Renal Cancer), 10 μM, 48 hours
IGROV1 = IGROV1 (Ovarian Cancer), 10 μM, 48 hours
COLO 205 = COLO 205 (Colon Cancer), 10 μM, 48 hours
HT29 = HT29 (Colon Cancer), 10 μM, 48 hours
SF-268 = SF-268 (CNS Cancer), 10 μM, 48 hours
U251 = U251 (CNS Cancer), 10 μM, 48 hours
MDA-MB-468 = MDA-MB-468 (Breast Cancer), 10 μM, 48 hours
NCI-H322M = NCI-H322M (Non-Small Cell Lung Cancer), 10 μM, 48 hours
MOLT-4 = MOLT-4 (Leukemia), 10 μM, 48 hours
SW-620 = SW-620 (Colon Cancer), 10 μM, 48 hours

Compound	growth percentage (A549/ATCC) [%]	growth percentage (K-562) [%]	growth percentage (HCT-116) [%]	growth percentage (LOX IMVI) [%]	growth percentage (SR) [%]	growth percentage (SK-OV-3) [%]	growth percentage (HCC-2998) [%]	growth percentage (OVCAR-3) [%]	growth percentage (A498) [%]	growth percentage (OVCAR-4) [%]	growth percentage (SNB-75) [%]	growth percentage (MDA-MB-231/ATCC) [%]	growth percentage (MDA-MB-435) [%]	growth percentage (UACC-62) [%]	growth percentage (HL-60 (TB)) [%]	growth percentage (HS 578T) [%]	growth percentage (RPMI-8226) [%]	growth percentage (NCI-H23) [%]	growth percentage (SK-MEL-28) [%]	growth percentage (PC-3) [%]	also measured
O=C1c2cc(Cl)ccc2-c2c(N3CCOCC3)nc3ccccc3c21 [SJ-8, 9-Chloro-6-morpholino-11H-indeno[1,2-c]quinolin-11-one]	101.47	89.01	93.64	91.20	85.94	107.26	107.23	102.34	93.88	96.67	81.55	79.28	106.62	88.33	97.09	88.93	83.40	90.40	113.81	79.64	growth percentage (BT-549): 93.95%; growth percentage (NCI-H460): 102.14%; growth percentage (TK-10): 101.98%; growth percentage (IGROV1): 86.47%; growth percentage (COLO 205): 100.71%; growth percentage (HT29): 91.34%; growth percentage (SF-268): 103.58%; growth percentage (U251): 95.72%; growth percentage (MDA-MB-468): 59.47%; growth percentage (NCI-H322M): 91.28%; growth percentage (MOLT-4): 88.74%; growth percentage (SW-620): 103.71%
O=C1c2cc(Cl)ccc2-c2c(N3CCSCC3)nc3ccccc3c21 [SJ-9, 9-Chloro-6-thiomorpholino-11H-indeno[1,2-c]quinolin-11-one]	104.35	100.89	89.08	100.04	99.53	84.60	103.16	96.58	99.15	98.19	72.13	93.08	107.70	94.90	94.50	87.68	95.20	94.33	110.84	87.77	growth percentage (BT-549): 92.91%; growth percentage (NCI-H460): 93.32%; growth percentage (TK-10): 121.79%; growth percentage (IGROV1): 72.45%; growth percentage (COLO 205): 96.30%; growth percentage (HT29): 95.52%; growth percentage (SF-268): 96.13%; growth percentage (U251): 111.96%; growth percentage (MDA-MB-468): 97.71%; growth percentage (NCI-H322M): 92.29%; growth percentage (MOLT-4): 93.29%; growth percentage (SW-620): 91.88%
